Data: patent US5041653A, “Substituted benzamide radiosensitizers” (SRI International, priority 1990, dated 1991)

Experiments:
EMT6 tumors = assay: In vivo assay for radiosensitization activity (EMT6 tumors in female BALB/c mice, survival of dissected and cultured tumor cells, compared with MIS); set-up: key to Radiosensitization (score 0 to 4 vs MIS): 0: No radiosensitization; 1: Minimal radiosensitization (some radiosensitization relative to controls but lowest survival>3×lowest survival with MIS); 2: Moderate radiosensitization (not good as MIS, but lowest surviving fraction<3×lowest surviving fraction with MIS); 3: Good radiosensitization (equal to MIS); 4: Excellent radiosensitization (superior to MIS); conditions: for sensitizer enhancement ratio: at a 1-2 mM concentration, comparable to that for MIS; for Radiosensitization (score 0 to 4 vs MIS): EMT6 tumors, BALB/c mice, 5 mmole/kg or 2/3 of LD50 ip, 2,000 rad at 5 min to 2 hr after injection
Procedure: The compounds of the invention are tested in vivo for radiosensitization activity by the assay of Brown, J. M., Radiation Res (1975) 64:633-47, incorporated herein by reference. For this assay EMT6 tumors in female BALB/c mice weighing 20-25 g are used. These mice are bred under specific pathogen-free conditions and are 3-4 months old at the beginning of each experiment. The EMT6 tumor is grown intradermally in the flank from an inoculation of 2×10^5 tumor cells taken from the 2nd-8th in vitro passage of the tumor cells since removal from the previous in vivo tumor. Two tumors per mouse are implanted, and are used as subject tumors when they reach a volume of approximately […]. At this point the tumors contain approximately 20% hypoxic cells.
Test compounds are compared against MIS in this assay. The test compound is tested at a fixed injected dose of either 5 mmole/kg or 2/3 of the LD50 (whichever is lower), MIS is injected into controls at the same dose. Additional suitable controls of test compound-injected but non-irradiated and saline-injected and irradiated mice are also included. A fixed radiation dose of 2,000 rad is applied at variable intervals of 5 min to 2 hr between injection and irradiation. Typically, irradiation is applied at 5, 10, 15, 20, 30, 45, 60, 90, and 120 min following intraperitoneal administration of both drugs. By using these intervals, the results give an indication of both the optimum time to irradiate and of how the test compound sensitizes in relationship to MIS.
Irradiation of the EMT6 tumors is done by irradiating nonanesthetized tumor-bearing mice in a Plexiglas box. Irradiation conditions are 250 kVp X-rays, 15 mA, FSC 33 cm, added filtration of 0.35 mm Cu, half value layer 1.3 mm Cu, and a dose rate of 317 rad/min.
Radiosensitization activity is judged by survival rate of dissected and cultured tumor cells as follows: The tumor-bearing mice are killed immediately after irradiation, and tumors dissected from the skin, cut into several pieces, and made into a fine brei by high-speed chopping with a razor blade attached to a jigsaw. The brei is added to 30 ml of Hank's buffered salt solution (HBSS) containing 0.02% DNase, 0.05% promase, and 0.02% collagenase. The suspension is stirred for 30 min at 37° C., filtered, and centrifuged at 1,600 rmp for 10 min at 4° C. The cell pellet is resuspended in complete Waymouth's medium plus 121/2% horse serum plus 2-12% fetal calf serum (FCS) and an aliquot mixed with trypan blue and counted with the use of a hemacytometer. Suitable dilutions of this […] plated into 60- or 100-mm polystyrene petri dishes (Lux Scientific Corp) in 5 or 15 ml of medium. After incubation for 13 days, the colonies are fixed and stained, and those containing 50 cells or more are counted. The dilution yielding an average count of 25-100 colonies in a 60 mm dish is used in calculation of results.
The test compound is scored on the scale of 0 to 4 based on how it compares with MIS. The scoring system is:
1: Minimal radiosensitization (some radiosensitization relative to controls but lowest survival>3×lowest survival with MIS)
2: Moderate radiosensitization (not good as MIS, but lowest surviving fraction<3×lowest surviving fraction with MIS)
3: Good radiosensitization (equal to MIS)

[1] = system: Chinese hamster ovary HA-1 cells; assay: Cytotoxicity test (% cell survival, hypoxic HA-1 cells); assay type: cell-based; conditions: 10 mM test compound, 1 hr at 22° C., hypoxia (N2 containing 5% CO2), 60 min, 10000 µM
Procedure: (§1) Cytotoxicity tests were also carried out on each of the compounds. The test procedure was as follows: Log-phase Chinese hamster ovary HA-1 cells were trypsinized (0.5% trypsin in Hank's buffered salt solution (HBSS)) and plated in 60 mm Permanox petri dishes in concentrations necessary to yield approximately 30 colonies after experimental treatment. The cells were allowed to attach overnight. Then the medium was removed from each dish and replaced with 2 ml of medium containing varying concentrations of the test compound. The petri dishes were then placed in nylon chamber fitted with gassing ports and, to achieve hypx=oxia, were gassed at room temperature with humidified N2 containing 5% CO2 for 1 hr at a rate of 1 l/min. The cells are then exposed to 10 mM of the test compound for 1 hr at 22° C. The % cell survival is read after such treatment.

[2] = as above; assay type: cell-based, Chinese hamster; conditions: chinese hamster, ha-1 cells, hypoxic, 10 mM test compound, 1 hr at 22° C., hypoxia (N2 containing 5% CO2)
Procedure: as §1

| Compound | sensitizer enhancement ratio (EMT6 tumors) | Radiosensitization (score 0 to 4 vs MIS) (EMT6 tumors) | Cytotoxicity % Cell Survival [1] | viability at 1 h, 10000 µM [2] |
| --- | --- | --- | --- | --- |
| CC(=O)OCCOc1cccc(C(N)=O)c1 [3-(2-acetoylethoxy)benzamide, 3-(2-Acetoxyethoxy)benzamide] | 1.6 | – | – | – |
| NC(=O)c1cccc(O)c1 [3-hydroxybenzamide] | 1.6 | 3 | 77% | 90% |
| NC(=O)c1cccc(OCCO)c1 [3-(2-hydroxyethoxy)benzamide] | 1.6 | 3 | – | 89% |
